These results are taken from ChEMBL document CHEMBL3425431, “Synthesis and evaluation of constrained phosphoramidate inhibitors of prostate-specific membrane antigen” (Bioorg Med Chem Lett, 2015).

In data set [1] the target is T1, Glutamate carboxypeptidase 2 (Homo sapiens, UniProt Q04609). The note with it: 0.1 uM.
Target sequence in this assay (Q04609 whole entry, looked up): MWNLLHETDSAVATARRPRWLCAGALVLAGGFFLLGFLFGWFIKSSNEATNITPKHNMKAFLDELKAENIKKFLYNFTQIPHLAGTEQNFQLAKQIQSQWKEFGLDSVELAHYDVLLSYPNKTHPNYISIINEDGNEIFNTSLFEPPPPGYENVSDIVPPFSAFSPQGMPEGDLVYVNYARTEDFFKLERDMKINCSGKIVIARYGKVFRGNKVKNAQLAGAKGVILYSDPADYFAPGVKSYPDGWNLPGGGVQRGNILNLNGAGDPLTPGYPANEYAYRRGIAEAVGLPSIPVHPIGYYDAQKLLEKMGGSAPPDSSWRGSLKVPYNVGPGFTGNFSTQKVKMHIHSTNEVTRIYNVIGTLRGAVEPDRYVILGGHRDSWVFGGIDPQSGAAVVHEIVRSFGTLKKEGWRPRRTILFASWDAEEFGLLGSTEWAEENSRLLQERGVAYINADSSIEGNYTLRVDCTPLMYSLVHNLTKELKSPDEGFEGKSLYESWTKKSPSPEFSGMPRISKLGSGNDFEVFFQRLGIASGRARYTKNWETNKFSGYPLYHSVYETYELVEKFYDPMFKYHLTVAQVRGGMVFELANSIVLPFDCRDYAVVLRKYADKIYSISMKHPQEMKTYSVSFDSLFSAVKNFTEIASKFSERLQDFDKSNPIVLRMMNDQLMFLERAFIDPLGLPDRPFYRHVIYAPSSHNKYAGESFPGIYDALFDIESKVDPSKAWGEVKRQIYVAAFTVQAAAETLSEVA
Description: Slow reversible inhibition of PSMA (unknown origin) at 0.1 uM pre-incubated for 10 mins before PABGgG substrate addition by HPLC method
Data set [2] deals with T1, Glutamate carboxypeptidase 2. Put plainly: Inhibition of PSMA (unknown origin) incubated for 15 mins using PABGgG substrate by HPLC method.
Target sequence in this assay (Q04609 whole entry): as the sequence (Q04609 whole entry, looked up) above
The nature of data set [3]: Half life in pH 4.5 buffer at 50 degC by [31P] NMR spectrometry. The class given is physicochemical.
Data set [4] is described as follows: Half life in pH 4.5 buffer at 70 degC by [31P] NMR spectrometry. The class given is physicochemical.
A short description of data set [5]: Drug uptake in tumor of human CWR22Rv1 cells xenografted athymic NCr-nu/nu mouse at 200 uCi, iv after 2 hrs by microPET/CT imaging method. The class given is ADME, organism-based, CWR22R. The note with it: in vivo.
In a further data set the test system is Mus musculus. Put plainly: Drug uptake in other organs of human CWR22Rv1 cells xenografted athymic NCr-nu/nu mouse at 200 uCi, iv after 2 hrs by microPET/CT imaging method. The class given is ADME, organism-based. The note with it: in vivo.
For a further data set, the system named is Kidney. Put plainly: Drug uptake in kidney of human CWR22Rv1 cells xenografted athymic NCr-nu/nu mouse at 200 uCi, iv after 2 hrs by microPET/CT imaging method. Format: ADME, organism-based. The note with it: in vivo.

pIC50: −log10 of the molar value. Active and inactive are the calls of the source. The rule behind the calls is not given here.

As for `O=C(O)CC[C@H](NP(=O)(O)O[C@H]1C[C@H](C(=O)O)N(C(=O)CC[C@H](NC(=O)CCCCCNC(=O)c2ccc(F)cc2)C(=O)O)C1)C(=O)O`, the inhibition result in data set [1] was “Active”. The same compound showed a pIC50 in data set [2] of 7.96.

In the case of `O=C(O)CC[C@H](NP(=O)(O)O[C@H]1C[C@H](C(=O)O)N(C(=O)CC[C@H](NC(=O)c2ccc(F)cc2)C(=O)O)C1)C(=O)O`, the inhibition result in data set [1] was “Active”. In addition, the negative-log IC50 (pIC50) in data set [2] is 8.52.

Regarding `O=C(O)CC[C@H](NP(=O)(O)O[C@@H]1C[C@@H](C(=O)O)N(C(=O)CC[C@H](NC(=O)c2ccc(F)cc2)C(=O)O)C1)C(=O)O`, in data set [1], the inhibition result is “Active”. The compound also had a pIC50 in data set [2] of 8.59.

As for `NCCCCCC(=O)N[C@@H](CCC(=O)N1C[C@H](OP(=O)(O)N[C@@H](CCC(=O)O)C(=O)O)C[C@H]1C(=O)O)C(=O)O`, the inhibition result in data set [1] is “Active”. Moreover, the negative logarithm of the IC50 (pIC50) in data set [2] is 7.10.

In data set [2], `N[C@@H](CCC(=O)N[C@@H](CCCOP(=O)(O)N[C@@H](CCC(=O)O)C(=O)O)C(=O)O)C(=O)O` gave a pIC50 of 7.57.

As for `N[C@@H](CCC(=O)N1C[C@H](OP(=O)(O)N[C@@H](CCC(=O)O)C(=O)O)C[C@H]1C(=O)O)C(=O)O`, the inhibition entry in data set [1] is “Active”. The compound further showed a pIC50 in data set [2] of 7.22.

Take `NCCCCCC(=O)N[C@@H](CCC(=O)N[C@@H](CCCOP(=O)(O)N[C@@H](CCC(=O)O)C(=O)O)C(=O)O)C(=O)O`: the pIC50 in data set [2] is 7.72.

Consider `O=C(O)CC[C@H](NP(=O)(O)O[C@@H]1C[C@@H](C(=O)O)N(C(=O)CC[C@H](NC(=O)CCCCCNC(=O)c2ccc(F)cc2)C(=O)O)C1)C(=O)O`, for which the inhibition result in data set [1] was “Active”. Further, the values for the half-life in data set [3] and in data set [4] were 105 min and 32 min, respectively. The compound also gave a pIC50 in data set [2] of 8.89.

Turning to `NCCCCCC(=O)N[C@@H](CCC(=O)N1C[C@@H](OP(=O)(O)N[C@@H](CCC(=O)O)C(=O)O)C[C@@H]1C(=O)O)C(=O)O`, the inhibition result in data set [1] is “Active”. This compound gave a pIC50 in data set [2] of 6.95.

On to `O=C(O)CC[C@H](NP(=O)(O)OCCC[C@H](NC(=O)CC[C@H](NC(=O)CCCCCNC(=O)c1ccc(F)cc1)C(=O)O)C(=O)O)C(=O)O` [CTT-1057], for which the half-life in data set [3] stood at 75 min; in data set [4], 12 min. Moreover, the pIC50 in data set [2] was 9.40.

In data set [2], `O=C(O)CC[C@H](NP(=O)(O)OCCC[C@H](NC(=O)CC[C@H](NC(=O)c1ccc(F)cc1)C(=O)O)C(=O)O)C(=O)O` gave a pIC50 of 8.89.

Consider `N[C@@H](CCC(=O)N1C[C@@H](OP(=O)(O)N[C@@H](CCC(=O)O)C(=O)O)C[C@@H]1C(=O)O)C(=O)O`, for which, in data set [1], the inhibition entry was “Active”. The pIC50 in data set [2] was 6.45.

As to `O=C(O)CC[C@H](NP(=O)(O)O[C@@H]1C[C@@H](C(=O)O)N(C(=O)CC[C@H](NC(=O)CCCCCNC(=O)c2ccc(F)cc2)C(=O)O)C1)C(=O)O.O=C(O)CC[C@H](NP(=O)(O)O[C@@H]1C[C@@H](C(=O)O)N(C(=O)CC[C@H](NC(=O)CCCCCNC(=O)c2ccc([18F])cc2)C(=O)O)C1)C(=O)O`, the Drug uptake entry (in data set [5]; with Mus musculus; in the data set on Kidney) was “Active” throughout.
